The values that follow are results of earlier work, collected in patent US20020137787A1, “Prevention or treatment of complications related to non-insulin dependent diabetes mellitus or type 2 diabetes mellitus” (priority 2001, published 2002).

Like-named read-outs stand apart in the source and are kept apart here.

For data set [1] the following is noted: patients taking Clozapine.

For `CN1CCN(C2=Nc3cc(Cl)ccc3Nc3ccccc32)CC1` [Clozapine], the “effect on body weight” value in data set [1] is “increased weight”. On to `CNCCC(Oc1ccc(C(F)(F)F)cc1)c1ccccc1` (stereo not drawn) [Fluoxetine], for which the “effect on body weight” value (overweight depressed patients) is listed as “weight loss”. Moreover, where the note is “reported”, the “effects on blood glucose and lipid profiles” value is reported as “positive effects”.
